Source: PMC4503722, “Novel Phenotypic Outcomes Identified for a Public Collection of Approved Drugs from a Publicly Accessible Panel of Assays” (PLoS ONE, 2015)
Where two headings read alike, the source gives them in different places.

Key:
[1] = system: endothelial tube formation in co-cultures of ECFCs and ADSCs treated with VEGF; assay: cells; type: cell-based, human
HeLa cells = assay: cells; type: cell-based; settings: for EC50: HeLa, read-out: CellCycle G2/M;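 for Hela CellCycMod PI 4N summarized IC50: value tracks stimulation of 4N DNA content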
hp70S6K1 (RPS6KB1) = molecular target: T1, hp70S6K1 (RPS6KB1) (Homo sapiens, UniProt P23443); assay: Cerep LANCE kinase assay hp70S6K1 (S1 assay 31); type: biochemical
T1 construct: purchased Cerep (LANCE kinase assay platform, contract assay)
T1 sequence (P23443 whole entry): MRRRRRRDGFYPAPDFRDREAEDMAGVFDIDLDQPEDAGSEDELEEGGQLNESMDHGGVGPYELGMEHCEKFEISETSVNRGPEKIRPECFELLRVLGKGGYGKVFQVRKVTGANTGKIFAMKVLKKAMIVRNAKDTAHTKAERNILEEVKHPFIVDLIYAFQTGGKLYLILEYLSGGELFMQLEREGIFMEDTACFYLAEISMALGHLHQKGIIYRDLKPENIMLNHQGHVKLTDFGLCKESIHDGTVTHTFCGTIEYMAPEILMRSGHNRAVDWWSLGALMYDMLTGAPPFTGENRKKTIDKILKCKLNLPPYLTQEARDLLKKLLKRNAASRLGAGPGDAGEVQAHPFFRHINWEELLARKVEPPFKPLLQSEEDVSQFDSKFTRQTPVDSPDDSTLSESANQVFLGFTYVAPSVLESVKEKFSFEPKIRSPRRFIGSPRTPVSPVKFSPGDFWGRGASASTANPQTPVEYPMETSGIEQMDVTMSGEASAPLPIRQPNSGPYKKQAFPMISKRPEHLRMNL

hKDR = molecular target: T2, hKDR (Homo sapiens, UniProt P35968); assay: Cerep LANCE kinase assay hKDR (S1 assay 32); type: biochemical
T2 construct: purchased Cerep (LANCE kinase assay platform, contract assay)
T2 sequence (P35968 20-1356): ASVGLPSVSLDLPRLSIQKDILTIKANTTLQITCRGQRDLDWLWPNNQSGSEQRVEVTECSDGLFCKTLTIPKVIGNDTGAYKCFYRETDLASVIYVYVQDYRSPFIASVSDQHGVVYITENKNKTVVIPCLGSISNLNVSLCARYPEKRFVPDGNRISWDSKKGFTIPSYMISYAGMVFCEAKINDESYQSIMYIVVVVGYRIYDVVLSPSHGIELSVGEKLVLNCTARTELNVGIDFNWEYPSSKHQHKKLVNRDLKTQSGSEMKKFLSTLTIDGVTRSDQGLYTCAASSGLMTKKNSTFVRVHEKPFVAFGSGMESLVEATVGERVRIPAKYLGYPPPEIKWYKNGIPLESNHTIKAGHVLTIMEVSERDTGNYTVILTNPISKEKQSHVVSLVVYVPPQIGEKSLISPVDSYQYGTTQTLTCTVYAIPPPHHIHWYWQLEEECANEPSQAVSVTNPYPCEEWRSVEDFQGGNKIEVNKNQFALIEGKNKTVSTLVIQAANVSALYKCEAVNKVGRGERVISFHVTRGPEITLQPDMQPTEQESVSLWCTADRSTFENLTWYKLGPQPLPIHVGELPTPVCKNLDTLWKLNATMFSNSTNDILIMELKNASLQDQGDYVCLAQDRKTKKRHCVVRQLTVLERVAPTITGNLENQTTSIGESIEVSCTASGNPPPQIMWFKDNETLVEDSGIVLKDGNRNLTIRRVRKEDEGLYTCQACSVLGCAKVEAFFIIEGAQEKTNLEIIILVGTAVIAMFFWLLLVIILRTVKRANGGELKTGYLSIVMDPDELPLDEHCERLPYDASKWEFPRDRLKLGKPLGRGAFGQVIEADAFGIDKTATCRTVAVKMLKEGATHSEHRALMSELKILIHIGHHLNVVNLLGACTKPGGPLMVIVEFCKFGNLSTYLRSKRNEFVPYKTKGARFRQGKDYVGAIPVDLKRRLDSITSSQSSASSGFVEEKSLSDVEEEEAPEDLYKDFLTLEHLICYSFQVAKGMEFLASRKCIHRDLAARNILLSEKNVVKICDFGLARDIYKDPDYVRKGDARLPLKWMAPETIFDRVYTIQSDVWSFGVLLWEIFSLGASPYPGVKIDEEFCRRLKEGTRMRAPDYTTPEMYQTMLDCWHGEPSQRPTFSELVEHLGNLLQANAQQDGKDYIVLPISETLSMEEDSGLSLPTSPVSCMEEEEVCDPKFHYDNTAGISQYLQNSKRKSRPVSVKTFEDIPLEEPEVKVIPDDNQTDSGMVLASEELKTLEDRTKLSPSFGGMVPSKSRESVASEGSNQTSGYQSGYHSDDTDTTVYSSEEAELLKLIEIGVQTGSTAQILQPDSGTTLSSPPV

hJAK2 = molecular target: T3, hJAK2 (Homo sapiens, UniProt O60674); assay: Cerep LANCE kinase assay hJAK2 (S1 assay 33); type: biochemical
T3 construct: purchased Cerep (LANCE kinase assay platform, contract assay)
T3 sequence (O60674 whole entry): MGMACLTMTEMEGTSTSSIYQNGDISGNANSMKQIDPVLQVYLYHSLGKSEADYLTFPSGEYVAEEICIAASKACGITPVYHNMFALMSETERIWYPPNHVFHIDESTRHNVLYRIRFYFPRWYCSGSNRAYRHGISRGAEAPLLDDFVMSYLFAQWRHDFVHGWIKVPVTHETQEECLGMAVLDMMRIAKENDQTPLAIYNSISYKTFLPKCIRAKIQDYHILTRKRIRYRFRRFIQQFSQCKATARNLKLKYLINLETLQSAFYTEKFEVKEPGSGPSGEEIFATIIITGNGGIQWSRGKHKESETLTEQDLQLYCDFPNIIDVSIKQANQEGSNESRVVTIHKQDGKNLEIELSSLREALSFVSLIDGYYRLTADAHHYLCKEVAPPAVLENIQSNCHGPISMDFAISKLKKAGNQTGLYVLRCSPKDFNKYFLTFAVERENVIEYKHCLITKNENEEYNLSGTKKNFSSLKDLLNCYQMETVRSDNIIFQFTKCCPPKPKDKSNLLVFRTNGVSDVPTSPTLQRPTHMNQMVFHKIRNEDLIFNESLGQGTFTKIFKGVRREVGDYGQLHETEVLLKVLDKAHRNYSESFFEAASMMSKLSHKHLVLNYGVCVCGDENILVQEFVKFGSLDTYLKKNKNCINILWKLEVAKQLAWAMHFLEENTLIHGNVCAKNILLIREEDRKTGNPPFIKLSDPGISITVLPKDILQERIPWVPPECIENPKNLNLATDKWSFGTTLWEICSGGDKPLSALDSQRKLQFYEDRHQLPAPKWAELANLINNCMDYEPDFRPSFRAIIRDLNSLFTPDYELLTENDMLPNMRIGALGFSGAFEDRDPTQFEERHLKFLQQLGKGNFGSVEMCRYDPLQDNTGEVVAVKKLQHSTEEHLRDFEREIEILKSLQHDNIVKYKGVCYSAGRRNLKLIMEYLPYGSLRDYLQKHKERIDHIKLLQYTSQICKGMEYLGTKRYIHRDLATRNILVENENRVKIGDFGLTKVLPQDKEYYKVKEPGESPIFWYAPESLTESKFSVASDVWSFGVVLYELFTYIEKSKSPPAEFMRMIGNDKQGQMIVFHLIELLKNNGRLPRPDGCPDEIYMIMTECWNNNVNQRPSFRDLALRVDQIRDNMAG

hGSK3b = molecular target: T4, hGSK3b (Homo sapiens, UniProt P49841); assay: Cerep LANCE kinase assay hGSK3b (S1 assay 34); type: biochemical
T4 construct: purchased Cerep (LANCE kinase assay platform, contract assay)
T4 sequence (P49841 whole entry): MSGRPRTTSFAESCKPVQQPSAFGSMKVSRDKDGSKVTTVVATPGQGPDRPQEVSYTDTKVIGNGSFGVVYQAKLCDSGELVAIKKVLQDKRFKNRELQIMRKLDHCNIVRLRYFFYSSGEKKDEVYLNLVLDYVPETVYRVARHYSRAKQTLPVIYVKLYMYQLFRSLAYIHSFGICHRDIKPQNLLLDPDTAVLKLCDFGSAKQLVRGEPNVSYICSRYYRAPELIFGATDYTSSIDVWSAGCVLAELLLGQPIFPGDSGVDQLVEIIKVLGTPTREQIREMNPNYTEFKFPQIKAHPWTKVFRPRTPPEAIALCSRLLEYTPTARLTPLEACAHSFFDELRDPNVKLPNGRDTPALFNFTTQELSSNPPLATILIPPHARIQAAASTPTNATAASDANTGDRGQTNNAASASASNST

hFLT3 = molecular target: T5, hFLT3 (Homo sapiens, UniProt P36888); assay: Cerep LANCE kinase assay hFLT3 (S1 assay 35); type: biochemical
T5 construct: purchased Cerep (LANCE kinase assay platform, contract assay)
T5 sequence (P36888 27-993): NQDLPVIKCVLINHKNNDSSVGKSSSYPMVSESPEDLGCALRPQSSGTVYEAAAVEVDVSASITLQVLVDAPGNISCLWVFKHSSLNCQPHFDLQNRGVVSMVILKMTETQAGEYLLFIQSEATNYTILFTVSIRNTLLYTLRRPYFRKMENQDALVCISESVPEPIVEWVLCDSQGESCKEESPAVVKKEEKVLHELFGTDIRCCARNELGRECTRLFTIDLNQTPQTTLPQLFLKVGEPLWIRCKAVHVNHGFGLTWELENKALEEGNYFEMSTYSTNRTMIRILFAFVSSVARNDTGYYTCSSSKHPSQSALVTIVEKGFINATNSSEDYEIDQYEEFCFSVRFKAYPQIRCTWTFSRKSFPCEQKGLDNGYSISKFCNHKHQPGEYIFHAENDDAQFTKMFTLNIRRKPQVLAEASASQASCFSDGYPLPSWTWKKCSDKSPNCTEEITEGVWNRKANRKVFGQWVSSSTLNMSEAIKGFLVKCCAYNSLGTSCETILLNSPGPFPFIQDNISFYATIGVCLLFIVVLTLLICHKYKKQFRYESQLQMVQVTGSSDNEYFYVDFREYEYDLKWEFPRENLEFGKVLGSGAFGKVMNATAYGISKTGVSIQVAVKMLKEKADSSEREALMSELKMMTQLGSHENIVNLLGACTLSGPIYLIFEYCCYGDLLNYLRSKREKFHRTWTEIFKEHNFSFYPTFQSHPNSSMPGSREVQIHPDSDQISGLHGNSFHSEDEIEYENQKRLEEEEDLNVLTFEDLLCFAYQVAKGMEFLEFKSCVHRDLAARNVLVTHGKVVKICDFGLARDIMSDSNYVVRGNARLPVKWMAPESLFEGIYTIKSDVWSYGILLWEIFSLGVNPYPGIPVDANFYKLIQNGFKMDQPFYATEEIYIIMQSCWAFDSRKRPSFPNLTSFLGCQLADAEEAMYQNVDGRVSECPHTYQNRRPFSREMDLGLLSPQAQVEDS

[2] = system: ECFC/ADSC co-culture cell nuclei number; settings: for IC50: read-out: VEGF_ADSC\ECFC Angio Hoechst NucArea summarized IC50
DLD-1 = assay: cells; type: cell-based
HCT116 = assay: cells; type: cell-based
[3] = system: HCT116 cells treated with a GSK3β inhibitor; assay: cells; type: cell-based
Colo320 = assay: cells; type: cell-based
[4] = system: nuclear β-catenin in C2C12 cells; assay: cells; type: cell-based; settings: read-out: Wnt Pathway
INS-1E cells = assay: cells; type: cell-based, rat; settings: INS-1E, read-out: Insulin Secretion
NCI-H716 cells = assay: cells; type: cell-based, Human; settings: NCI-H716, read-out: GLP 1 Secretion
SW480 = assay: cells; type: cell-based; settings: read-out: Basal_Viability ATP SW480
HT-29 = assay: cells; type: cell-based; settings: basal, read-out: Basal_Viability ATP HT-29
RKO = assay: cells; type: cell-based; settings: basal, read-out: Basal_Viability ATP RKO
SNU-C1 = assay: cells; type: cell-based; settings: read-out: Basal_Viability ATP SNU-C1
[5] = read-out: VEGF_ADSC\ECFC Angio CD31 TubeArea summarized IC50

**Q.** For COc1cc([C@@H]2c3cc4c(cc3[C@H](O)[C@H]3COC(=O)[C@H]23)OCO4)cc(OC)c1OC [NCGC00022001-13], which IC50 [1, 5] is on record?
**A.** 0.0081 µM

**Q.** What about the IC50 (HeLa cells; assay number 14, 2N, read-out: Hela CellCycMod PI 2N summarized IC50) of the same compound?
**A.** 0.0089 µM

**Q.** And the IC50 (HeLa cells; assay number 15, S phase, read-out: Hela CellCycMod PI S Phase summarized IC50)?
**A.** > 10 µM

**Q.** What about the IC50 (HeLa cells; assay number 16, 4N, read-out: Hela CellCycMod PI 4N summarized IC50) of the same compound?
**A.** 0.0077 µM

**Q.** What about the IC50 (HeLa cells; assay number 17, MI, read-out: Hela CellCycMod PI MI summarized IC50) of the same compound?
**A.** 0.0112 µM

**Q.** And the IC50 (HeLa cells; assay number 18, cell number, read-out: Hela CellCycMod PI Cell Number summarized IC50)?
**A.** 0.0048 µM

**Q.** And the IC50 (hp70S6K1 (RPS6KB1); assay number 31, read-out: hp70S6K1 LANCE summarized IC50)?
**A.** > 20 µM

**Q.** What about the IC50 (hKDR; assay number 32, read-out: hKDR LANCE summarized IC50) of the same compound?
**A.** > 20 µM

**Q.** And the IC50 (hJAK2; assay number 33, read-out: hJAK2 LANCE summarized IC50)?
**A.** > 20 µM

**Q.** And the IC50 (hGSK3b; assay number 34, read-out: hGSK3b LANCE summarized IC50)?
**A.** > 20 µM

**Q.** What about the IC50 (hFLT3; assay number 35, read-out: hFLT3 LANCE summarized IC50) of the same compound?
**A.** > 20 µM

**Q.** What about the IC50 [2] of the same compound?
**A.** > 10 µM

**Q.** Which results are given for COc1cc(-c2ccc(=O)[nH]n2)ccc1OC(F)F [NCGC00016106-13]?
**A.** VEGF_ADSC\ECFC Angio CD31 TubeArea IC50/EC50 [1]: 1.2205 µM; Hela CellCycMod PI 2N IC50/EC50 (HeLa cells; assay number 14, 2N): > 10 µM; Hela CellCycMod PI S Phase IC50/EC50 (HeLa cells; assay number 15, S phase): > 10 µM; Hela CellCycMod PI 4N IC50/EC50 (HeLa cells; assay number 16, 4N): > 10 µM; Hela CellCycMod PI MI IC50/EC50 (HeLa cells; assay number 17, MI): > 10 µM; Hela CellCycMod PI Cell Number IC50/EC50 (HeLa cells; assay number 18, cell number): 0.0092 µM; hp70S6K1 LANCE IC50/EC50 (hp70S6K1 (RPS6KB1); assay number 31): > 20 µM; hKDR LANCE IC50/EC50 (hKDR; assay number 32): > 20 µM; hJAK2 LANCE IC50/EC50 (hJAK2; assay number 33): > 20 µM; hGSK3b LANCE IC50/EC50 (hGSK3b; assay number 34): > 20 µM; hFLT3 LANCE IC50/EC50 (hFLT3; assay number 35): > 20 µM; VEGF_ADSC\ECFC Angio Hoechst NucArea IC50/EC50 [2]: > 10 µM

**Q.** O=C(Nc1ccc([N+](=O)[O-])cc1Cl)c1cc(Cl)ccc1O [NCGC00015735-11] was tested. Which IC50 [1, 5] did it give?
**A.** 0.112 µM

**Q.** What about the IC50 (HeLa cells; read-out: Hela CellCycMod PI 2N summarized IC50) of the same compound?
**A.** > 10 µM

**Q.** What about the IC50 (HeLa cells; read-out: Hela CellCycMod PI 4N summarized IC50) of the same compound?
**A.** > 10 µM

**Q.** And the IC50 (HeLa cells; read-out: Hela CellCycMod PI Cell Number summarized IC50)?
**A.** 0.144 µM

**Q.** And the IC50 (HeLa cells; read-out: Hela CellCycMod PI MI summarized IC50)?
**A.** > 10 µM

**Q.** And the IC50 (HeLa cells; read-out: Hela CellCycMod PI S Phase summarized IC50)?
**A.** > 10 µM

**Q.** What about the IC50 (DLD-1; read-out: Basal_Viability ATP DLD-1 summarized IC50) of the same compound?
**A.** 0.00349 µM

**Q.** What about the IC50 (HCT116; read-out: Basal_Viability ATP HCT116 summarized IC50) of the same compound?
**A.** 0.00144 µM

**Q.** What about the IC50 ([3]; read-out: GSK3b inh pretreated_Viability ATP HCT116 summarized IC50) of the same compound?
**A.** 0.00295 µM

**Q.** What about the IC50 (Colo320; read-out: Basal_Viability ATP Colo 320 summarized IC50) of the same compound?
**A.** 0.00826 µM

**Q.** What about the IC50 (hp70S6K1 (RPS6KB1); read-out: hp70S6K1 LANCE summarized IC50) of the same compound?
**A.** > 20 µM

**Q.** And the IC50 (hKDR; read-out: hKDR LANCE summarized IC50)?
**A.** > 20 µM

**Q.** And the IC50 (hGSK3b; read-out: hGSK3b LANCE summarized IC50)?
**A.** > 20 µM

**Q.** What about the IC50 (hFLT3; read-out: hFLT3 LANCE summarized IC50) of the same compound?
**A.** > 20 µM

**Q.** What about the IC50 [2] of the same compound?
**A.** 5.81 µM

**Q.** For CCc1oc2ccccc2c1C(=O)c1cc(Br)c(O)c(Br)c1 [Benzbromarone], which IC50 ([1]; Homo sapiens, read-out: Anti-Angiogenesis) is on record?
**A.** > 10 µM

**Q.** And the EC50 ([4]; Mus musculus, C2C12, S2 Table, module primary assay, 20 / 20.1 codes per legend)?
**A.** > 10 µM

**Q.** What about the EC50 (INS-1E cells; Rattus norvegicus) of the same compound?
**A.** > 10 µM

**Q.** What about the EC50 (NCI-H716 cells; Homo sapiens) of the same compound?
**A.** > 20 µM

**Q.** What about the EC50 (HeLa cells; Homo sapiens, S2 Table, 20 = no response at highest concentration) of the same compound?
**A.** > 10 µM

**Q.** And the IC50 (DLD-1; Homo sapiens, DLD-1, basal, DLD-1, read-out: Basal_Viability ATP DLD-1)?
**A.** 0.268 µM

**Q.** What about the IC50 (SW480; Homo sapiens, SW480, basal, SW480) of the same compound?
**A.** 1.74 µM

**Q.** What about the IC50 (HCT116; Homo sapiens, HCT-116, basal, HCT116, read-out: Basal_Viability ATP HCT116) of the same compound?
**A.** 1.06 µM

**Q.** And the IC50 ([3]; Homo sapiens, HCT-116, HCT116 pretreated with GSK3b inhibitor, read-out: GSK3b inh pretreated_Viability ATP HCT116)?
**A.** 0.0667 µM

**Q.** And the IC50 (Colo320; Homo sapiens, basal, Colo 320, read-out: Basal_Viability ATP Colo 320)?
**A.** > 20 µM

**Q.** And the IC50 (HT-29; Homo sapiens, HT-29)?
**A.** 1.14 µM

**Q.** What about the IC50 (RKO; Homo sapiens, RKO) of the same compound?
**A.** 0.131 µM

**Q.** And the IC50 (SNU-C1; Homo sapiens, SNU-C1, basal, SNU-C1)?
**A.** 0.105 µM

**Q.** For O=[N+]([O-])c1ccc(Oc2ccc(N=C=S)cc2)cc1 [Cantrodifene], which IC50 ([1]; IC50 / EC50, endothelial tube area, ADSC/ECFC co-culture, read-out: Anti-Angiogenesis) is on record?
**A.** 3.72 µM

**Q.** What about the EC50 ([4]; IC50 / EC50, C2C12 beta-catenin translocation) of the same compound?
**A.** > 10 µM

**Q.** What about the EC50 (INS-1E cells; IC50 / EC50) of the same compound?
**A.** > 10 µM

**Q.** What about the EC50 (NCI-H716 cells; IC50 / EC50) of the same compound?
**A.** > 10 µM

**Q.** What about the EC50 (HeLa cells; IC50 / EC50) of the same compound?
**A.** > 10 µM

**Q.** What about the IC50 (DLD-1; basal, read-out: Basal_Viability ATP DLD-1) of the same compound?
**A.** 2.1 µM

**Q.** What about the IC50 (SW480; basal) of the same compound?
**A.** 1.63 µM

**Q.** What about the IC50 (HCT116; basal, read-out: Basal_Viability ATP HCT116) of the same compound?
**A.** 2.77 µM

**Q.** What about the IC50 ([3]; GSK3b inhibitor pretreated, read-out: GSK3b inh pretreated_Viability ATP HCT116) of the same compound?
**A.** 1.47 µM

**Q.** What about the IC50 (Colo320; basal, read-out: Basal_Viability ATP Colo 320) of the same compound?
**A.** 1.46 µM

**Q.** And the IC50 (HT-29)?
**A.** 1.07 µM

**Q.** And the IC50 (RKO)?
**A.** 2.34 µM

**Q.** What about the IC50 (SNU-C1; basal) of the same compound?
**A.** 4.33 µM

**Q.** Which results are given for COc1cc2c(c(OC)c1OC)-c1ccc(OC)c(=O)cc1[C@@H](NC(C)=O)CC2 [colchicine]?
**A.** IC50 (hp70S6K1 (RPS6KB1)): > 20 µM; IC50 (hKDR): > 20 µM; IC50 (hJAK2): > 20 µM; IC50 (hGSK3b): > 20 µM; IC50 (hFLT3): > 20 µM
